We go through 23 compounds from patent publication US12344603B2 (Genentech, Inc., priority 2020, dated 2025).

As usually defined, the IC50 is the concentration that gives 50% inhibition. A low value points to inhibition by little substance.

Where a name gives a salt, the structure may show the parent alone.

Chain of IRE1α (O75460 547-977 D688N): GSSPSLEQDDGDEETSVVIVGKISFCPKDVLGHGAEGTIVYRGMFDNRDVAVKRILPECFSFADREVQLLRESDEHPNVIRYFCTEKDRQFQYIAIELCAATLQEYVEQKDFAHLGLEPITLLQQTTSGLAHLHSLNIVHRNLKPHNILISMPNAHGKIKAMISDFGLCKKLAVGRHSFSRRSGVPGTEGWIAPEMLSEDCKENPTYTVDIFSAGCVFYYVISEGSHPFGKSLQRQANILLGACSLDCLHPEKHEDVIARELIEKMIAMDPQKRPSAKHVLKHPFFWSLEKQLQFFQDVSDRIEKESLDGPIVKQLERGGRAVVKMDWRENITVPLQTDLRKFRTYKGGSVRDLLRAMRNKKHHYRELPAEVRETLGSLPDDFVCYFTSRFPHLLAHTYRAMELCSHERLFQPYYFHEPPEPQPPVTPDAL

This experiment has as its target IRE1α (Homo sapiens (Human), UniProt O75460, D688N). Description: IRE1α TR-FRET competition binding assay (IRE1α HTRF). Conditions: TR-FRET competition binding to kinase domain of IRE1α. The gist of the method:
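Competition of compounds against an Alexa fluor 647 ATP-site probe (2 nM final) for the His-tagged kinase domain (0.25 nM final), detected via 2 nM Eu anti-His antibody by TR-FRET, 665 and 615 nm emission. Protein–antibody premix 1 h, 4° C; reaction 1 h, room temperature, pH 7.5 HEPES buffer.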
Compound `O=c1c(-c2ccc(NS(=O)(=O)Cc3ccccc3)c(F)c2F)cc2cnc(N[C@@H]3CNC[C@@H](F)C3)nc2n1CC1CC1` [Compound 52, N-(4-(8-(cyclopropylmethyl)-2-(((3S,5S)-5-fluoropiperidin-3-yl)amino)-7-oxo-7,8-dihydropyrido[2,3-d]pyrimidin-6-yl)-2,3-difluorophenyl)-1-phenylmethanesulfonamide trifluoroacetate salt] had an IC50 of 0.8 nM. The value for `O=c1c(-c2ccc(NS(=O)(=O)Cc3ccccc3)c(F)c2F)cc2cnc(N[C@@H]3CNC[C@@H](F)C3)nc2n1CCF` [Compound 53, N-(2,3-Difluoro-4-(8-(2-fluoroethyl)-2-(((3S,5S)-5-fluoropiperidin-3-yl)amino)-7-oxo-7,8-dihydropyrido[2,3-d]pyrimidin-6-yl)phenyl)-1-phenylmethanesulfonamide] was 0.71 nM. The value for `CC(C)n1c(=O)c(-c2cc(F)c(NS(=O)(=O)c3ccccc3)c(F)c2F)cc2cnc(N[C@@H]3CNC[C@@H](F)C3)nc21` [Compound 54, N-(2,3,6-Trifluoro-4-(2-(((3S,5S)-5-fluoropiperidin-3-yl)amino)-8-isopropyl-7-oxo-7,8-dihydropyrido[2,3-d]pyrimidin-6-yl)phenyl)benzenesulfonamide] was 0.34 nM; that for `O=c1c(-c2cc(F)c(NS(=O)(=O)Cc3ccccc3)c(F)c2F)cc2cnc(N[C@@H]3CNC[C@@H](F)C3)nc2n1C1CC(F)(F)C1` [Compound 55, N-(4-(8-(3,3-Difluorocyclobutyl)-2-(((3S,5S)-5-fluoropiperidin-3-yl)amino)-7-oxo-7,8-dihydropyrido[2,3-d]pyrimidin-6-yl)-2,3,6-trifluorophenyl)-1-phenylmethanesulfonamide hydrochloride] was 0.42 nM.

`CC(C)n1c(=O)c(-c2cc(F)c(NS(=O)(=O)Cc3ccccc3)c(F)c2F)cc2cnc(N[C@H]3CC[C@H](N)CC3)nc21` [Compound 56, N-(4-(2-(((1r,4r)-4-Aminocyclohexyl)amino)-8-isopropyl-7-oxo-7,8-dihydropyrido[2,3-d]pyrimidin-6-yl)-2,3,6-trifluorophenyl)-1-phenylmethanesulfonamide] showed an IC50 of 0.17 nM.

`COc1ccc(CS(=O)(=O)Nc2c(F)cc(-c3cc4cnc(N[C@@H]5CNC[C@@H](F)C5)nc4n(C(C)C)c3=O)c(F)c2F)cc1` [Compound 57, 1-(4-Methoxyphenyl)-N-(2,3,6-trifluoro-4-(2-(((3S,5S)-5-fluoropiperidin-3-yl)amino)-8-isopropyl-7-oxo-7,8-dihydropyrido[2,3-d]pyrimidin-6-yl)phenyl)methanesulfonamide] gave an IC50 of 0.14 nM. The compound `CC1CC1C(=O)Nc1c(F)cc(-c2cc3cnc(N[C@H]4CC[C@H](N(C)C)CC4)nc3n(C(C)C)c2=O)c(F)c1F` (stereo partly drawn) [Compound 58, (1S,2R)—N-(4-(2-(((1r,4r)-4-(dimethylamino)cyclohexyl)amino)-8-isopropyl-7-oxo-7,8-dihydropyrido[2,3-d]pyrimidin-6-yl)-2,3,6-trifluorophenyl)-2-methylcyclopropane-1-carboxamide] showed an IC50 of 5.7 nM.

Compound `CC(C)CC(=O)Nc1c(F)cc(-c2cc3cnc(N[C@H]4CC[C@H](N(C)C)CC4)nc3n(C(C)C)c2=O)c(F)c1F` [Compound 59, N-(4-(2-(((1r,4r)-4-(Dimethylamino)cyclohexyl)amino)-8-isopropyl-7-oxo-7,8-dihydropyrido[2,3-d]pyrimidin-6-yl)-2,3,6-trifluorophenyl)-3-methylbutanamide] registered an IC50 of 3.2 nM. As for `CC(C)n1c(=O)c(-c2cc(F)c(NS(=O)(=O)CCC(F)(F)F)c(F)c2F)cc2cnc(NC3CCC(N(C)C)C(F)C3)nc21` (centres unmarked) [Compound 60, N-(4-(2-((4-(dimethylamino)-3-fluorocyclohexyl)amino)-8-isopropyl-7-oxo-7,8-dihydropyrido[2,3-d]pyrimidin-6-yl)-2,3,6-trifluorophenyl)-3,3,3-trifluoropropane-1-sulfonamide], the IC50 stood at 0.2 nM. The value for `CC(C)n1c(=O)c(-c2cc(F)c(NS(=O)(=O)c3ccccc3Cl)c(F)c2F)cc2cnc(N[C@@H]3CNC[C@@H](F)C3)nc21` [Compound 61, 2-Chloro-N-(2,3,6-trifluoro-4-(2-(((3S,5S)-5-fluoropiperidin-3-yl)amino)-8-isopropyl-7-oxo-7,8-dihydropyrido[2,3-d]pyrimidin-6-yl)phenyl)benzenesulfonamide hydrochloride] was 0.31 nM; that for `CC(C)n1c(=O)c(-c2cc(F)c(NC(=O)CC3CCC3)c(F)c2F)cc2cnc(N[C@H]3CC[C@H](N(C)C)CC3)nc21` [Compound 62, 2-Cyclobutyl-N-(4-(2-(((1r,4r)-4-(dimethylamino)cyclohexyl)amino)-8-isopropyl-7-oxo-7,8-dihydropyrido[2,3-d]pyrimidin-6-yl)-2,3,6-trifluorophenyl)acetamide] was 2.2 nM; that for `CC(C)n1c(=O)c(-c2cc(F)c(NC(=O)[C@H]3C[C@H]3F)c(F)c2F)cc2cnc(N[C@H]3CC[C@H](N(C)C)CC3)nc21` [Compound 63, (1R,2R)—N-(4-(2-(((1r,4r)-4-(Dimethylamino)cyclohexyl)amino)-8-isopropyl-7-oxo-7,8-dihydropyrido[2,3-d]pyrimidin-6-yl)-2,3,6-trifluorophenyl)-2-fluorocyclopropane-1-carboxamide hydrochloride] was 4.1 nM. The value for `CC(C)n1c(=O)c(-c2ccc(NS(=O)(=O)Cc3ccccc3)c(F)c2)nc2cnc(N[C@@H]3CNC[C@@](C)(F)C3)nc21` [Compound 64, N-(2-Fluoro-4-(2-(((3S,5S)-5-fluoro-5-methylpiperidin-3-yl)amino)-8-isopropyl-7-oxo-7,8-dihydropteridin-6-yl)phenyl)-1-phenylmethanesulfonamide] was 0.21 nM. On to `CC(C)n1c(=O)c(-c2ccc(NS(=O)(=O)Cc3ccccc3)c(F)c2)nc2cnc(N[C@@H]3CNC[C@H](CF)C3)nc21` [Compound 65, N-(2-Fluoro-4-(2-(((3S,5R)-5-(fluoromethyl)piperidin-3-yl)amino)-8-isopropyl-7-oxo-7,8-dihydropteridin-6-yl)phenyl)-1-phenylmethanesulfonamide], for which the IC50 was 0.24 nM.

`CC(C)n1c(=O)c(-c2ccc(NS(=O)(=O)CCC(C)(F)F)c(F)c2)nc2cnc(N[C@H]3CC[C@H](N(C)C)CC3)nc21` [Compound 66, N-(4-(2-(((1r,4r)-4-(Dimethylamino)cyclohexyl)amino)-8-isopropyl-7-oxo-7,8-dihydropteridin-6-yl)-2-fluorophenyl)-3,3-difluorobutane-1-sulfonamide] had an IC50 of 0.29 nM. Compound `CC(C)n1c(=O)c(-c2ccc(NS(=O)(=O)CCC(F)(F)F)c(F)c2)nc2cnc(N[C@H]3CC[C@H](N(C)C)CC3)nc21` [Compound 67, N-(4-(2-(((1r,4r)-4-(Dimethylamino)cyclohexyl)amino)-8-isopropyl-7-oxo-7,8-dihydropteridin-6-yl)-2-fluorophenyl)-3,3,3-trifluoropropane-1-sulfonamide] showed an IC50 of 0.18 nM. `CC(C)n1c(=O)c(-c2ccc(NS(=O)(=O)Cc3ccccc3)c(F)c2)nc2cnc(N[C@H]3CC[C@H](N(C)C)CC3)nc21` [Compound 68, N-(4-(2-(((1r,4r)-4-(Dimethylamino)cyclohexyl)amino)-8-isopropyl-7-oxo-7,8-dihydropteridin-6-yl)-2-fluorophenyl)-1-phenylmethanesulfonamide]: the IC50 turned out to be 0.13 nM.

Take `CCn1c(=O)c(-c2cc(NS(=O)(=O)Cc3ccccc3)nn2C)cc2cnc(N[C@@H]3CNC[C@@H](F)C3)nc21` [Compound 69, N-(5-(8-ethyl-2-(((3S,5S)-5-fluoropiperidin-3-yl)amino)-7-oxo-7,8-dihydropyrido[2,3-d]pyrimidin-6-yl)-1-methyl-1H-pyrazol-3-yl)-1-phenylmethanesulfonamide]: the IC50 was 98 nM. The value for `CC(C)n1c(=O)c(-c2cc(F)c(NS(=O)(=O)CCC(F)(F)F)c(F)c2)cc2cnc(N[C@H]3CC[C@H](N(C)C)CC3)nc21` [Compound 70, N-(4-(2-(((1,4-trans)-4-(Dimethylamino)cyclohexyl)amino)-8-isopropyl-7-oxo-7,8-dihydropyrido[2,3-d]pyrimidin-6-yl)-2,6-difluorophenyl)-3,3,3-trifluoropropane-1-sulfonamide] was 0.26 nM; that for `CC(C)n1c(=O)c(-c2cc(F)c(NS(=O)(=O)CCC(F)(F)F)cc2F)cc2cnc(N[C@H]3CC[C@H](N(C)C)CC3)nc21` [Compound 71, N-(4-(2-(((1,4-trans)-4-(Dimethylamino)cyclohexyl)amino)-8-isopropyl-7-oxo-7,8-dihydropyrido[2,3-d]pyrimidin-6-yl)-2,5-difluorophenyl)-3,3,3-trifluoropropane-1-sulfonamide formate] was 0.25 nM; that for `Cc1cc(-c2nc3cnc(N[C@@H]4CNC[C@@H](F)C4)nc3n(C(C)C)c2=O)cc(F)c1NS(=O)(=O)Cc1ccccc1` [Compound 72, N-[2-Fluoro-4-[2-[[(3S,5S)-5-fluoro-3-piperidyl]amino]-8-isopropyl-7-oxo-pteridin-6-yl]-6-methyl-phenyl]-1-phenyl-methanesulfonamide] was 0.5 nM.

Compound `CC(C)n1c(=O)c(-c2ccc(NS(=O)(=O)CCC(F)(F)F)c(F)c2)nc2cnc(N[C@@H]3CNC[C@@H](F)C3)nc21` [Compound 73, 3,3,3-Trifluoro-N-[2-fluoro-4-[2-[[(3S,5S)-5-fluoro-3-piperidyl]amino]-8-isopropyl-7-oxo-pteridin-6-yl]phenyl]propane-1-sulfonamide] came in with an IC50 of 0.5 nM. Regarding `CC(C)n1c(=O)c(-c2ccc(NS(=O)(=O)c3ccccc3)c(F)c2)nc2cnc(N[C@@H]3CNC[C@@H](F)C3)nc21` [Compound 74, N-[2-Fluoro-4-[2-[[(3S,5S)-5-fluoro-3-piperidyl]amino]-8-isopropyl-7-oxo-pteridin-6-yl]phenyl]benzenesulfonamide], the half-inhibitory concentration (IC50) is 0.6 nM. This IC50 and that of the compound before are within 1.5-fold of each other.
